The target of experiment [1] is T1, Proto-oncogene tyrosine-protein kinase ROS (Homo sapiens, UniProt P08922). The experiment can be described thus: Inhibition of ROS1 (unknown origin) incubated for 1 hr by HTRF assay.
Experiment [2] concerns the target T2, ALK tyrosine kinase receptor (Homo sapiens, UniProt Q9UM73). The experiment can be described thus: Inhibition of ALK (unknown origin) incubated for 1 hr by HTRF assay.
In experiment [3] the target is T3, Proto-oncogene tyrosine-protein kinase ROS (Homo sapiens, UniProt P08922, G2032R). The experiment can be described thus: Inhibition of human ROS1 G2032R mutant using KKKSPGEYVNIEFG as substrate incubated for 120 mins in presence of [gamma-33P]-ATP.
Experiment [4] in a line: Inhibition of human […] G1202R mutant using Casein as substrate incubated for 120 mins in presence of [gamma-33P]-ATP.
Experiment [5] addresses T1, Proto-oncogene tyrosine-protein kinase ROS. The experiment can be described thus: Inhibition of human ROS1 using KKKSPGEYVNIEFG as substrate incubated for 120 mins in presence of [gamma-33P]-ATP.
The target in another experiment is T4, TGF-beta receptor type-1 (Homo sapiens, UniProt P36897).
T4 sequence (P36897 whole entry): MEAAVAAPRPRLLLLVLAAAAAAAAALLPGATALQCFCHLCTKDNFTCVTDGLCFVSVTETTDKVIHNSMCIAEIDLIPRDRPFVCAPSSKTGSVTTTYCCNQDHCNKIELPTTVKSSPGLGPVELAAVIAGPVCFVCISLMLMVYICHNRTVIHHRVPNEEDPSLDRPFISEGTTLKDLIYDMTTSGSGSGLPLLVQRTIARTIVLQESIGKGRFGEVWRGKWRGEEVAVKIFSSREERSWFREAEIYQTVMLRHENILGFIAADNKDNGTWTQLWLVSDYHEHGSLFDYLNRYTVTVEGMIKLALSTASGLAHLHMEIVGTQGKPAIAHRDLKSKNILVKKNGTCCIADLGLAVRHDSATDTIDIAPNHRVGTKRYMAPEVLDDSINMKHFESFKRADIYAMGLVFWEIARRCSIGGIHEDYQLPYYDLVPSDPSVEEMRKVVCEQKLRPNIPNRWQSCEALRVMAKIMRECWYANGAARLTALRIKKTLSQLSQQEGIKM
The experiment can be described thus: Inhibition of human […] using Casein as substrate incubated for 120 mins in presence of [gamma-33P]-ATP.

For another experiment, the system named is HCC78. The experiment can be described thus: Cytotoxicity against human HCC78 cells incubated for 72 hrs by MTT assay. Type of experiment: functional, cell-based.
A further experiment concerns NCI-H2228. In words: Cytotoxicity against human NCI-H2228 cells incubated for 72 hrs by MTT assay. Type of experiment: functional, cell-based. Conditions: NCI-H2228, 72 h.
Experiment [6] concerns the target T3, Proto-oncogene tyrosine-protein kinase ROS. In words: Inhibition of recombinant human ROS1 G2032R mutant preincubated for 5 to 10 mins followed by substrate and ATP addition and measured after 60 mins by TR-FRET assay.
For experiment [7], the target named is ALK tyrosine kinase receptor (Homo sapiens, UniProt Q9UM73, G1202R/L1196M). The experiment can be described thus: Inhibition of human ALK L1196M/G1202R double mutant preincubated for 5 to 10 mins followed by substrate and ATP addition and measured after 60 mins by TR-FRET assay.
The target of experiment [8] is T1, Proto-oncogene tyrosine-protein kinase ROS. The experiment can be described thus: Inhibition of recombinant human ROS1 preincubated for 5 to 10 mins followed by substrate and ATP addition and measured after 60 mins by TR-FRET assay.
Experiment [9] concerns the target T2, ALK tyrosine kinase receptor. The experiment can be described thus: Inhibition of human ALK preincubated for 5 to 10 mins followed by substrate and ATP addition and measured after 60 mins by TR-FRET assay.
The target is the same in experiment [10]. In words: Inhibition of wild type ALK (unknown origin) expressed in BaF3 cells incubated for 4 hrs. The class given is cell-based.
Experiment [11] concerns the target T1, Proto-oncogene tyrosine-protein kinase ROS. The experiment can be described thus: Inhibition of wild type ROS1 (unknown origin) expressed in BaF3 cells incubated for 4 hrs. The class given is cell-based.
In experiment [12] the target is T2, ALK tyrosine kinase receptor. In words: Inhibition of wild-type ALK (unknown origin).
For experiment [13], the system named is BaF3. In words: Antitumor activity against mouse BaF3 cells harboring ROS1 G2032 mutant assessed as tumor growth inhibition at 2.2 nM. Type of experiment: functional. Set-up: scale not given: the % may be the effect or the level left.
Experiment [14] relates to BaF3. The experiment can be described thus: Antitumor activity against mouse BaF3 cells harboring EML4 ALK V1 G1202R mutant assessed as tumor growth inhibition at 2.2 nM. Set-up: scale not given: the % may be the effect or the level left. Type of experiment: functional.
For experiment [15], the system named is BaF3. The experiment can be described thus: Antitumor activity against mouse BaF3 cells harboring wild type ROS1 assessed as tumor growth inhibition at 2.2 nM. The class given is functional. Further details: scale not given: the % may be the effect or the level left.

SMILES strings stand for the structures. pIC50: −log10 of the molar value. Where only a bound is given, the exact number is not on record here.

T3 sequence (P08922 28-2347 G2032R limits assumed): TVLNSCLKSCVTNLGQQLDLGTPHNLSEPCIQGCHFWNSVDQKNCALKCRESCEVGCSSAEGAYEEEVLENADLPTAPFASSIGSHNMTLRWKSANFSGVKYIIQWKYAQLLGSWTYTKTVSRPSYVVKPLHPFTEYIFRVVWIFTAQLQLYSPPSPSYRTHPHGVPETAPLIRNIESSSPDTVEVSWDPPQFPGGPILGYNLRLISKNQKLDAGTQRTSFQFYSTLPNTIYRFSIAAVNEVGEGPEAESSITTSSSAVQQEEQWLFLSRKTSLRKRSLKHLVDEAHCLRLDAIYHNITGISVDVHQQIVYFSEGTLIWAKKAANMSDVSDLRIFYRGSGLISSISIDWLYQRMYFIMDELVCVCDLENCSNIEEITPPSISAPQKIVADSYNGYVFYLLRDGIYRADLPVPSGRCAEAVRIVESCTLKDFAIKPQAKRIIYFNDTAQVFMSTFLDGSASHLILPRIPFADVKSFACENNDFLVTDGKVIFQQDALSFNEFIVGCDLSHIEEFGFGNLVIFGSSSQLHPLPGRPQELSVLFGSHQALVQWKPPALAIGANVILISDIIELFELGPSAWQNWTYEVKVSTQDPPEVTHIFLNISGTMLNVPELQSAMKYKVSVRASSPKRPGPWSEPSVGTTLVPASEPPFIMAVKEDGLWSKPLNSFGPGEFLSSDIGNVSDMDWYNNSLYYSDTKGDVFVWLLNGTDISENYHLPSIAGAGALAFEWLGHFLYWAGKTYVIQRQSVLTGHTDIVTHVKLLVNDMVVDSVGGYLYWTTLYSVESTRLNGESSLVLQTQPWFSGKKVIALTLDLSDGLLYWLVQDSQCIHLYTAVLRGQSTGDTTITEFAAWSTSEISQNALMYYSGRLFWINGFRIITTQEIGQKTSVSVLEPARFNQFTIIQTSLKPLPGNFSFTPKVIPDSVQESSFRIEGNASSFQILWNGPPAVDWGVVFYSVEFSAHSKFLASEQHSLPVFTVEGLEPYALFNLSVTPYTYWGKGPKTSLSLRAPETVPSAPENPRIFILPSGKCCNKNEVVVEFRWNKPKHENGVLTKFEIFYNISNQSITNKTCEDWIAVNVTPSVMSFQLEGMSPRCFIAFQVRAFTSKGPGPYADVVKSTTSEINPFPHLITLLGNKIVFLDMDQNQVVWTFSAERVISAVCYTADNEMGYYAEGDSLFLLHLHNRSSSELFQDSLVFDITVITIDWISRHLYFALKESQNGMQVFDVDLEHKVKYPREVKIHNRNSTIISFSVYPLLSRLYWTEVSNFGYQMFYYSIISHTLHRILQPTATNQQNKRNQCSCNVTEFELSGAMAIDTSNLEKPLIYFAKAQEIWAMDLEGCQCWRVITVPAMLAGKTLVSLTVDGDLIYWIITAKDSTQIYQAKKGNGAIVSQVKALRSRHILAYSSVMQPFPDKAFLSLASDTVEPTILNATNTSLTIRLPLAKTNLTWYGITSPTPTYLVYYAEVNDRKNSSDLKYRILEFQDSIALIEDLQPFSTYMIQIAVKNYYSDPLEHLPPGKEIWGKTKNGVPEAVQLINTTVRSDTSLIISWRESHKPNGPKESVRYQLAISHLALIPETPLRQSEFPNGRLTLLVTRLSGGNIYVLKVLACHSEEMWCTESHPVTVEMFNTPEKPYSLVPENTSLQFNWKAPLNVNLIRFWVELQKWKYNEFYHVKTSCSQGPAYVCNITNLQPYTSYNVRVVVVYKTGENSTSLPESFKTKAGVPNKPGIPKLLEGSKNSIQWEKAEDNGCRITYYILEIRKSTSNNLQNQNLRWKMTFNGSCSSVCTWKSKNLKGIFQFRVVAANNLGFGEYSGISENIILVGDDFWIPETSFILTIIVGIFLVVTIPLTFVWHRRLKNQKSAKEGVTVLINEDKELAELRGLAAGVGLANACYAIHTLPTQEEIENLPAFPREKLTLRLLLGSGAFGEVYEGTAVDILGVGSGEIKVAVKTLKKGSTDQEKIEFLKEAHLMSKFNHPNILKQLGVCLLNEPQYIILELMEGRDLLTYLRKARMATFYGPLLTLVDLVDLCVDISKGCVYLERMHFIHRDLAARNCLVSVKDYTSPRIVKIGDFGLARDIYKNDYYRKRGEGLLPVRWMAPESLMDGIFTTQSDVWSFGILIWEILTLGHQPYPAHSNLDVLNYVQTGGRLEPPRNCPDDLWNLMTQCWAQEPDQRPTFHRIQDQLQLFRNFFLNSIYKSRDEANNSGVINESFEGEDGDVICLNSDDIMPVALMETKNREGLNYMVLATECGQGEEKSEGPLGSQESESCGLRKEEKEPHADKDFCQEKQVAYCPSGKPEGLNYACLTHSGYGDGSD
T2 sequence (Q9UM73 whole entry): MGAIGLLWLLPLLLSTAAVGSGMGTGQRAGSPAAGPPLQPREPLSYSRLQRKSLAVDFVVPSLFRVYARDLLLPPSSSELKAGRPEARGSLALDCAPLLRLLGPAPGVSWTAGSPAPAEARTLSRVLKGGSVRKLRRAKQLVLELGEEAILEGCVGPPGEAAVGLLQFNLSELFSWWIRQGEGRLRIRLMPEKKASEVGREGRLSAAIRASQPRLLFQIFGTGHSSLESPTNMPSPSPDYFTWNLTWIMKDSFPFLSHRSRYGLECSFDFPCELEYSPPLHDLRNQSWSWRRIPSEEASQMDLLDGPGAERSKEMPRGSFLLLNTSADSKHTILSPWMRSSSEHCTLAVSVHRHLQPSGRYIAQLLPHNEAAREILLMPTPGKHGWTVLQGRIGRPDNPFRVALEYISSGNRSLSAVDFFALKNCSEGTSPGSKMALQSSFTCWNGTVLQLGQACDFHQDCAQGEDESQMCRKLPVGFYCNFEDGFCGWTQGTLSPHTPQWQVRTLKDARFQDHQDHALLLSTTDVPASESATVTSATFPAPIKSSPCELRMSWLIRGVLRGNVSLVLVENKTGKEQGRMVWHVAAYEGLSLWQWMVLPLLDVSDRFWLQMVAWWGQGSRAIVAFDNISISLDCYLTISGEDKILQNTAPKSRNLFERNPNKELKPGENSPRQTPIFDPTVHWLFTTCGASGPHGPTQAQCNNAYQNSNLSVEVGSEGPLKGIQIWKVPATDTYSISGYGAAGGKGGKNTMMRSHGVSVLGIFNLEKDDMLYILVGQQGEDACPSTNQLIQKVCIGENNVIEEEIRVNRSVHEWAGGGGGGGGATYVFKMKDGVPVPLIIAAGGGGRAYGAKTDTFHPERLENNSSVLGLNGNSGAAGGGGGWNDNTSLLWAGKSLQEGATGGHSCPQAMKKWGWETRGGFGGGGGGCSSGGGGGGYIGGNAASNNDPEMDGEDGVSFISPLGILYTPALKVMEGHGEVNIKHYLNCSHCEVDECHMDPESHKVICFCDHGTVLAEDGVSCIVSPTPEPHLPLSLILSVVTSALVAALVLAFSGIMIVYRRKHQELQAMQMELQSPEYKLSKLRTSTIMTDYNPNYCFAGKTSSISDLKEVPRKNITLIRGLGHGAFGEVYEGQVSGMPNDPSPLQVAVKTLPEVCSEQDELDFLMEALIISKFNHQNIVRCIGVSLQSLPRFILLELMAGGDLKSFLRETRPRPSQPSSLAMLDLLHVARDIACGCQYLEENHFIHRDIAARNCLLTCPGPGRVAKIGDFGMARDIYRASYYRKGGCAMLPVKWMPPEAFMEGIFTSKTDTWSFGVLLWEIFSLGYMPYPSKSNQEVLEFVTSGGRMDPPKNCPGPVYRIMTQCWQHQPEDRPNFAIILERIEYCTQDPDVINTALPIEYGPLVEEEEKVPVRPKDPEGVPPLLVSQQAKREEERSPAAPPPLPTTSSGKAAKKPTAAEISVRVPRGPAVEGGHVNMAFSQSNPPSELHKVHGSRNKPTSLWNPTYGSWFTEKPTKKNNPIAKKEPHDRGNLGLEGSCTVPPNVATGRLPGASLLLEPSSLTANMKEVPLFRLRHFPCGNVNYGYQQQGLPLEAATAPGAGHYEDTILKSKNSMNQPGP

On to `COc1cc(-n2cccc2CN2CCN(C)CC2)ccc1Nc1ncc(Cl)c(Nc2ccccc2NS(C)(=O)=O)n1`, for which the pIC50 in experiment [1] is 8.44; in experiment [2], 8.74.
As for `COc1ccc(F)cc1[C@@H](C)Nc1ccn2ncc(C3=NOC(C)(C)N3)c2n1`, the pIC50 in [3] was more than 9.30; in [4], more than 7.30; in experiment [5], more than 9.30; at TGF-beta receptor type-1 it was more than 7.30.
Turning to `COc1ccc(CNC(=O)Cn2nc(-c3ccccc3)c3cnc4ccccc4c32)cc1`, the pIC50 in the experiment with HCC78 (Homo sapiens, HCC78, 72 h) is 5.79; with HCC78 (hcc78), 5.79; with NCI-H2228, 5.57.
Regarding `CCOc1ccc(F)cc1[C@@H](C)Nc1ccn2ncc(C3=NOC(C)N3)c2n1` (some centres not stated), the pIC50 was more than 9.30 in experiment [3], more than 7.30 in experiment [4], more than 9.30 in experiment [5] and more than 7.30 at TGF-beta receptor type-1.
In the case of `C[C@H]1Nc2ccn3ncc(c3n2)C(=O)N[C@@]2(C)CC3=CC(F)=CC1C3O2` (some centres not stated), the pIC50 in experiment [6] is 9.47; in experiment [7], 7.68; in experiment [8], 9.08; in [9], 8.69.
Turning to `C[C@H]1Nc2ccn3ncc(c3n2)C(=O)NC[C@@H](CF)Oc2ccc(F)cc21`, the pIC50 in experiment [10] and in [11] was 8.70 in each case.
`CC(C)Oc1ccc(F)cc1[C@@H](C)Nc1ccn2ncc(C3=NOC(C)N3)c2n1` (some centres not stated): the pIC50 in [3] was more than 9.30; in experiment [4], more than 7.30; in experiment [5] it was more than 9.30; at TGF-beta receptor type-1, more than 7.30.
Consider `O=C(Nc1n[nH]c2ncc(S(=O)(=O)c3cccc(F)c3)cc12)c1ccc(N2CCOCC2)cc1`, for which the pIC50 in [12] was 9.22.
On to `C[C@H]1CNC(=O)c2cnn3ccc(nc23)N[C@H](C)c2cc(F)ccc2O1` [REPOTRECTINIB], for which the Activity was 99% with BaF3 [13], 99% in the experiment with BaF3 [14] and 197% in the experiment with BaF3 [15].

For the origin of these results see ChEMBL document CHEMBL5620350, “Recent advances in the development of dual ALK/ROS1 inhibitors for non-small cell lung cancer therapy” (Eur J Med Chem, 2023).
